According to patent publication US20090105212A1, “NOVEL ADENINE COMPOUND” (priority 2005, published 2009):
pEC50: −log10 of the molar value.

target: T1, Human TLR7 (Homo sapiens, UniProt Q9NYK1); test: Human TLR7 reporter assay (NF-kB-SEAP, HEK293 cells); assay type: cell-based; settings: hTLR7/seap-293 cells (HEK293, NF-kB-SEAP reporter), 20 hours incubation, 1 nM-10 μM, absorbance 405 nm; read-out: human TLR7 binding activity (EC50)
T1 construct: expressed in transfected cells; host or cells: HEK293 (hTLR7/seap-293)
T1 sequence (Q9NYK1 27-1049): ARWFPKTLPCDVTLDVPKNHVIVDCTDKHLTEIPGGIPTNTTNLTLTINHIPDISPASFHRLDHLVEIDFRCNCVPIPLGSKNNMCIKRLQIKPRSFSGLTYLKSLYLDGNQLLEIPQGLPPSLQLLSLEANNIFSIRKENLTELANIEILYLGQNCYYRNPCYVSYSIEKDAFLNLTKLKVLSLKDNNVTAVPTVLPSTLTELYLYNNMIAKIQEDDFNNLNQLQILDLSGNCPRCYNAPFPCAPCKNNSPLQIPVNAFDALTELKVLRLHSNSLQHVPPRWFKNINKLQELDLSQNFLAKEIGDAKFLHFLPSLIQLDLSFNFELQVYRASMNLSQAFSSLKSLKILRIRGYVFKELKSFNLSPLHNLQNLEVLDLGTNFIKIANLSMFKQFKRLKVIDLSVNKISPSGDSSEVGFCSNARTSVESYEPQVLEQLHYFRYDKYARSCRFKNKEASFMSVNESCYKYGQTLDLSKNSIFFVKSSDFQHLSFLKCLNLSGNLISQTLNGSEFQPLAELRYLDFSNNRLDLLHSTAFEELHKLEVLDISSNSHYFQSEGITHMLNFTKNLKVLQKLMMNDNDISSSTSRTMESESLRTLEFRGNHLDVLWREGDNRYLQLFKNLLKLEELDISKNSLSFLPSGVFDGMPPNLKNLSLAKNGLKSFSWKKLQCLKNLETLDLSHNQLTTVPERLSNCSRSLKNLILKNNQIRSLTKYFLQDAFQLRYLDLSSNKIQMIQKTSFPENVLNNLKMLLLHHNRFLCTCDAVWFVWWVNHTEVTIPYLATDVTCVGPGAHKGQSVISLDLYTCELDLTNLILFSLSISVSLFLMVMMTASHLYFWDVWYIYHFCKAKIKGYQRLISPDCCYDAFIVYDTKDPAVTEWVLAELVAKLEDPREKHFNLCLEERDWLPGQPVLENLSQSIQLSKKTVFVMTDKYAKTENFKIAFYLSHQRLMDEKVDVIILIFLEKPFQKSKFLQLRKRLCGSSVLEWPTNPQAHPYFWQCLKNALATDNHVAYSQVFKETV
Method: Human TLR7 Reporter Assay
Human TLR7 or rat TLR7 plasmid and reporter plasmid (NF-kB-SEAP) stably-induced HEK293 cells were suspended in DMEM media (10% […], 1% NEAA, 10 ug/mL blastocidin S HCl, 100 ug/mL Zeocin), and the suspension was seeded in 90 μl/well on 96 well plate (hTLR7/seap-293:20000 cells/well, rTLR7/seap-293:25000 cells/well).
To the cells seeded on 96 well plate was added in 10 μl/well a test compound wherein DMSO stock solution (2 μl) was hundredfold diluted with medium (200 μl) (final concentration; 1 nM-10 μM, common ratio 3). The mixture was stirred tapping in the side of the plate, and then incubated for 20 hours in CO2 incubator. To the cells stimulated by a test compound was added a substrate for reporter assay (substrate for SEAP, pNPP) by 50 μl/well. 10 minutes after the addition of substrate, a quenching solution (4N NaOH) was added by 50 μl/well, and the enzymatic reaction was quenched. Top seal A was attached on the plate, and absorbance was measured by microplate reader (405 nm).

Row | SMILES | pEC50
1 | COCCOc1nc(N)c2[nH]c(=O)n(Cc3ccc(CN(C)CC(=O)OC)cc3)c2n1 [Example 12, 7,8-Dihydro-9-[4-(N-methoxycarbonylmethyl-N-methylaminomethyl)benzyl]-2-(2-methoxyethoxy)-8-oxoadenine] | 6.60
2 | CCCCOc1nc(N)c2[nH]c(=O)n(Cc3ccc(OCCCCN4CCC(C(=O)OCCCCN(C)C)CC4)cc3)c2n1 [Example 3, 2-butoxy-7,8-dihydro-9-(4-[4-{4-[4-(N,N-dimethylamino)butoxycarbonyl]piperidin-1-yl}butoxy]benzyl)-8-oxoadenine] | 8.11
3 | CCCCOc1nc(N)c2[nH]c(=O)n(Cc3ccc(OCCCCN(C)CC(=O)OC)nc3)c2n1 [Example 26] | 8.55
4 | CCCCOc1nc(N)c2[nH]c(=O)n(Cc3ccc(OCCCCN4CCC(C(=O)OC)CC4)cc3)c2n1 [Example 1, 2-Butoxy-7,8-dihydro-9-[4-{4-[4-(methoxycarbonyl)-piperidin-1-yl]butoxy}benzyl]-8-oxoadenine] | 8.24
5 | CCCCOc1nc(N)c2[nH]c(=O)n(Cc3ccc(CCCN(C)CC(=O)OC)cc3)c2n1 [Example 21, 2-Butoxy-7,8-dihydro-9-{4-[3-(N-methoxycarbonylmethyl-N-methylamino)propyl]benzyl}-8-oxoadenine] | 8.17
6 | CCCCOc1nc(N)c2[nH]c(=O)n(Cc3ccc(CCN4CCC(C(=O)OC)CC4)cc3)c2n1 [Example 18, 2-Butoxy-7,8-dihydro-9-{4-[2-(4-methoxycarbonyl-piperidin-1-yl)ethyl]benzyl}-8-oxoadenine] | 8.66
7 | CCCCOc1nc(N)c2[nH]c(=O)n(Cc3ccc(CCN(C)CC(=O)OC)cc3)c2n1 [Example 20, 2-Butoxy-7,8-dihydro-9-{4-[2-(N-methoxycarbonylmethyl-N-methylamino)ethyl]benzyl}-8-oxoadenine] | 7.73
8 | CCCCOc1nc(N)c2[nH]c(=O)n(Cc3ccc(CN(C)CC(=O)OC)cc3)c2n1 [Example 9, 2-Butoxy-7,8-dihydro-9-[4-(N-methoxycarbonylmethyl-N-methylaminomethyl)benzyl]-8-oxoadenine] | 8.06
9 | CCCCOc1nc(N)c2[nH]c(=O)n(Cc3ccc(CN(C)CC(=O)OC)cc3OC)c2n1 [Example 16, 2-Butoxy-7,8-dihydro-9-[2-methoxy-4-(N-methoxycarbonylmethyl-N-methylaminomethyl)benzyl]-8-oxoadenine] | 7.81
10 | CCCCOc1nc(N)c2[nH]c(=O)n(Cc3ccc(OCC4CCN(CC(=O)OCCCCN(C)C)CC4)cc3)c2n1 [Example 7, 2-Butoxy-7,8-dihydro-9-[4-{1-[4-(N,N-dimethylamino)-butoxycarbonylmethyl]piperidin-4-ylmethyloxy}benzyl]-8-oxoadenine] | 8.29
11 | CCCCOc1nc(N)c2[nH]c(=O)n(Cc3ccc(CN(C)CC(=O)OCCCCN(C)C)cc3OC)c2n1 [Example 23, 2-Butoxy-7,8-dihydro-9-{4-[N-(4-dimethylaminobutoxy-carbonylmethyl)-N-methylaminomethyl]-2-methoxybenzyl}-8-oxoadenine] | 7.80
12 | CCCCOc1nc(N)c2[nH]c(=O)n(Cc3ccc(OCC4CCN(CC(=O)OC)CC4)cc3)c2n1 [Example 5, 2-butoxy-7,8-dihydro-9-{4-[1-(methoxycarbonylmethyl)piperidin-4-ylmethyloxy]benzyl}-8-oxoadenine] | 8.44
13 | CCCCOc1nc(N)c2[nH]c(=O)n(Cc3ccc(OCCCCN4CCC(C(=O)OC)CC4)nc3)c2n1 [Example 24, 2-butoxy-7,8-dihydro-9-{6-[4-(4-methoxylcarbonylpiperidin-1-yl)butoxy]pyridin-3-ylmethyl}-8-oxoadenine] | > 9.00
14 | CCCCOc1nc(N)c2[nH]c(=O)n(Cc3ccc(OCCCCN(C)CC(=O)OCCCCN(C)C)nc3)c2n1 [Example 28, 2-Butoxy-7,8-dihydro-9-[6-(4-{N′-methyl-N′-[4-(N,N-dimethylamino)butoxycarbonylmethyl]}aminobutoxy)pyridin-3-ylmethyl]-8-oxoadenine] | 8.70
15 | CCCCOc1nc(N)c2[nH]c(=O)n(Cc3ccc(OCCCN(C)CC(=O)OC)cc3)c2n1 [Example 4, 2-butoxy-7,8-dihydro-9-[4-{3-[(N-methyl-N-methoxycarbonylmethyl)amino]propoxy}benzyl]-8-oxoadenine] | 8.11
